Several values for one entry are separate records, joined by “and”; a condition that tells them apart may be missing. Equal values may be shown once.
Details: Crystal, Calculated from knudsen effusion weight loss

Clc1ccc(-n2cccc2)cc1 [1-(4-chlorophenyl)-1H-pyrrole]
Details	vapor or sublimation pressure
295.22 K	0.000183 kPa and 0.000176 kPa and 0.000175 kPa
297.17 K	0.000227 kPa and 0.00022 kPa and 0.000219 kPa
299.22 K	0.000289 kPa and 0.000279 kPa and 0.000275 kPa
301.12 K	0.000363 kPa and 0.000364 kPa and 0.000378 kPa
303.17 K	0.000467 kPa and 0.000463 kPa and 0.000451 kPa
305.21 K	0.000595 kPa and 0.000571 kPa and 0.000558 kPa
307.1 K	0.000744 kPa and 0.000715 kPa and 0.000706 kPa
309.12 K	0.000904 kPa and 0.000892 kPa and 0.000871 kPa
311.22 K	0.001132 kPa and 0.001115 kPa and 0.001084 kPa

Ic1ccc(-n2cccc2)cc1 [1-(4-iodophenyl)pyrrole]
Details	vapor or sublimation pressure
319.11 K	0.000107 kPa and 0.000112 kPa and 0.000109 kPa
321.19 K	0.000142 kPa and 0.00014 kPa and 0.000137 kPa
323.18 K	0.000174 kPa and 0.000169 kPa
325.12 K	0.000218 kPa and 0.000216 kPa and 0.00021 kPa
327.19 K	0.000274 kPa and 0.00027 kPa and 0.000265 kPa
329.18 K	0.000336 kPa and 0.000331 kPa and 0.000329 kPa
331.11 K	0.000402 kPa and 0.000421 kPa and 0.000416 kPa
333.17 K	0.00052 kPa and 0.000522 kPa and 0.000508 kPa
335.17 K	0.000639 kPa and 0.000628 kPa and 0.000624 kPa
337.12 K	0.000778 kPa and 0.000814 kPa and 0.000806 kPa
339.19 K	0.001022 kPa and 0.001014 kPa and 0.000977 kPa
341.17 K	0.001237 kPa and 0.001212 kPa and 0.001211 kPa

Fc1ccc(-n2cccc2)cc1 [1-(4-fluorophenyl)pyrrole]
Details	vapor or sublimation pressure
271.14 K	0.000157 kPa and 0.000149 kPa and 0.000152 kPa
273.16 K	0.0002 kPa and 0.000197 kPa
275.2 K	0.000237 kPa and 0.000236 kPa
277.18 K	0.000303 kPa and 0.000288 kPa and 0.000313 kPa
279.18 K	0.000396 kPa and 0.000393 kPa and 0.000391 kPa
281.18 K	0.000509 kPa and 0.000505 kPa and 0.000497 kPa
283.12 K	0.000688 kPa and 0.000694 kPa and 0.00068 kPa
285.13 K	0.000863 kPa and 0.000854 kPa and 0.000832 kPa
287.17 K	0.001072 kPa and 0.001068 kPa and 0.001064 kPa
